Data: US6410037B1, “Anti-pruritic compositions” (Roche Consumer Health AG, priority 1999, dated 2002)

Key:
[1] = test system: peritoneal mastocytes of rat; assay: Histamine release by peritoneal mastocytes of rat stimulated by substance P (spectrofluorimetry with OPT); type: cell-based; conditions: 10 μg/ml Ca-panthothenate and 7.5 μg/ml glycine, taken separately or together; substance P 10 μM
Experimental: Peritoneal mastocytes of rat were incubated with the test products and the substance P for 2 minutes at 37° C. in the following medium: sodium phosphate buffer 4 mM; potassium phosphate buffer 2.7 mM; NaCl 0.145 M; KCl 2.7 mM; CaCl2 0.9 mM; BSA (bovine serum albumin 0.175% (w/v). At the end of the incubation, histamine released by the mastocytes was quantified by spectrofluorimetry with ortho-phthalaldehyde (OPT) (R. Hakanson, A. I. Ronnberg and K. Sjolund, Analy. Biochem., 47,1972, pp. 356-370). The measurements were carried out by means of a multiplate spectrofluorimeter (Cytofluor 2350, MILLIPORE). Data groups (control and treated groups) were compared using a one-way analysis of variance (ANOVA 1, p<0.05), following by a Dunnett' test (p<0.05).

[2] = test system: human skin tissue; assay: Histamine release by human skin discs stimulated by substance P (ELISA); type: cell-based
Experimental: Test were carried out on peritoneal mastocytes of rat stimulated by the substance P (10 μM), or on human skin tissue.
The skin tissue assay system was prepared from normal adult skin collected after abdominal plastic surgery. The subject was a person (subject M1085). The skin tissue specimen was rinsed in Krebs bicarbonate solution consisting of: NaCl 118 mM; KCl 5.4 mM; NaH2PO4 1 mM; MgSO4 1.2 mM, CaCl2 1.9 mM; NaHCO3 25 mM and D-glucose 11.1 mM. Skin discs of about 8 mm of diameter were performed. Skin discs were cultured in RPMI 1640 medium supplemented with penicillin (100 UI/ml), streptomycin (110 μg/ml) and 2 mM glutamine. Skin discs were maintained at 37° C. in a humidified incubator under a 5% Co2/95% air atmosphere. Test products were incubated with the human skin discs and 100 μM of substance P for 2 hours at 37° C.
At the end of the incubation, histamine released by the human skin discs was quantified by ELISA (IMMUNOTECH). The results were expressed as pmoles of histamine released per gram of skin. Data groups (control and treated groups) were compared using a one-way analysis of variance (ANOVA 1, p<0.05), following by a Dunnett's test (p<0.05).

[3] = test system: mastocytes; conditions: cited from earlier work

| Compound | Inhibition of histamine release (in words) [1] | Inhibition of histamine release (in words) ([2]; already at a concentration of 25 μg/ml) | Histamine release by mastocytes (in words) [3] | Effect of addition of glycine to Ca-pantothenate on inhibition of histamine release (in words) ([2]; glycine 75 μg/ml added to Ca-pantothenate 100 μg/ml) |
| --- | --- | --- | --- | --- |
| calcium pantothenate [Ca-pantothenate] | do not act as inhibitors | acts as inhibitor of the histamine release | – | – |
| NCC(=O)O [Glycine] | do not act as inhibitors | – | inhibits histamine release by mastocytes | further improves such inhibition |
